Laboratory results reported in patent publication US10464957B2, “Oxidized lipids and methods of use thereof” (Vascular Biogenics Ltd., priority 2014, dated 2019).

Tests used:
NASH-induced mice = assay: NASH and liver fibrosis mouse model (STZ + HFD), liver histology; assay type: in vivo
Protocol: (§1) Neonatal male mice exposed to low-dose streptozotocin (STZ) develop liver steatosis with diabetes. Continuous high fat diet (HFD) increases lobular inflammation with foam cell-like macrophages, showing nonalcoholic steatohepatitis (NASH) pathology. NASH was induced in 40 male mice by a single subcutaneous injection of 200 μg per mouse of STZ two days after birth and feeding HFD [57 kcal % fat]) from four weeks of age. Vehicle, VB-703 (4 mg/kg), or telmisartan (10 mg/kg) as positive control, were administered once daily for three weeks, starting from six weeks of age. Mice were sacrificed at nine weeks of age.
Liver pathology was used to determine the effect of VB-703 on liver inflammation and fibrosis. Histology slides were stained with hematoxylin/eosin (H&E) to assess inflammation. The inflammation score was determined as follows:
Histology slides were stained with Sirius red to determine collagen content as a marker for the extent of fibrosis.

[1] = system: livers taken from NASH-induced mice; assay: Q-PCR of inflammation mediators in livers of NASH-induced mice; assay type: in vivo; conditions: VB-703 4 mg/kg, Q-PCR normalized to GAPDH
Protocol: as §1
RNA was prepared from livers from normal mice and NASH-induced mice treated with vehicle, VB-703, or telmisartan, using RNeasy mini kit (Qiagen). For cDNA preparation, 2 μg of RNA was combined with qScript reaction mix and qScript Reverse Transcriptase (Quanta BioSciences) for 5 min at 22° C. and then for 30 min at 42° C. Reaction was ended by incubation for an additional 5 min at 85° C. All real time PCR reactions were performed using the 7300 Real Time PCR System (Applied Biosystems). Q-PCR with mouse ready set of probe with primer was used for IL-1β, IL-12/23p40 and MCP-1 (Applied Biosystems). GAPDH was used to normalize RNA levels.

[2] = system: kidney of nephrectomized rats; assay: Real-time PCR of pro-fibrotic markers in kidney of nephrectomized rats; assay type: in vivo, Sprague Dawley (SD) Rats
Protocol: Kidney RNA was extracted with an RNeasy Fibrous Tissue Mini kit (Qiagen) and after DNAse I treatment, single-stranded cDNA was synthesized from 2 μg total RNA using the qScript cDNA Synthesis Kit (Quanta Biosciences) and diluted for real-time PCR. The expression of collagen 4α, fibronectin and TGFβ was quantified using the 7300 Real Time PCR System (Applied Biosystems). The assay was performed according to manufacturer instructions using the primers (Assay ID) represented at the table below supplied by Applied Biosystems. Data were normalized to the reference gene TATA box Binding Protein (TBP) and presented as relative mRNA levels compared with Sham PBS 0.5% Eth treatment (Table 1).

[3] = system: MCP-1-induced signaling in human monocytes (THP-1 cell line); assay: MCP-1-induced signaling, western blot; assay type: cell-based; conditions: 20 min pretreatment, 50 ng/ml MCP1, THP-1
Protocol: THP-1 cells (10^6/ml) were pretreated for 20 min with VB-201 or VB-701 at the doses indicated in FIG. 4, or with solvent, followed by activation with 50 ng/ml MCP1, or were untreated (“Unt”). Cells were washed and resuspended in lysis buffer containing 1:100 dithiothreitol (DTT), phosphatase and protease inhibitors (Thermo Scientific). Samples were loaded onto a precast Criterion TGX gel (Bio-Rad, Hemel Hempstead, UK) and transferred onto nitrocellulose membrane. Blots were blocked with 5% milk or BSA in Tris buffered saline and Tween 20 (TBST) for 1 h, followed by incubation with primary and secondary antibodies. Membranes were developed using an ECL kit (Thermo Scientific). The following antibodies were used for immunoblotting:
Primary antibodies: p-ERK1/2 (Cat. No. M8159; 1:10000) was purchased from Sigma (Israel). p-AKT (Cat. No. 4060; 1:1000) was purchased from Cell Signaling Technology (Danvers, Mass.). αTubulin served as a loading control and was purchased from Sigma (Israel).
Secondary antibodies: HRP donkey anti-rabbit (1:5000) and HRP goat anti-mouse (1:3000) were from Jackson ImmunoResearch (West Grove, Pa., USA). HRP donkey anti-goat (1:5000) was from Santa Cruz Biotechnology.

[4] = system: RANTES-induced signaling in human monocytes (primary CD14+); assay: RANTES-induced signaling, western blot; assay type: cell-based; conditions: RANTES 100 ng/ml for 15 minutes
Protocol: Cells (10^6/ml) were pretreated for 20 min with VB-201 (1-hexadecyl-2-(4′-carboxy)butyl-glycero-3-phosphocholine or 1-hexadecyl-2-(4′-carboxybutyl)-glycerol-3-phosphocholine) or VB-701 at the doses indicated in FIG. 2, or with solvent (Sol), followed by 15 min activation with 100 ng/ml lipopolysaccharide (LPS) or were untreated (Unt). Cells were washed and resuspended in lysis buffer containing 1:100 dithiothreitol (DTT), phosphatase and protease inhibitors (Thermo Scientific). Samples were loaded onto a precast Criterion TGX gel (Bio-Rad, Hemel Hempstead, UK) and transferred onto nitrocellulose membrane. Blots were blocked with 5% milk or BSA in Tris buffered saline and Tween 20 (TBST) for 1 h, followed by incubation with primary and secondary antibodies. Membranes were developed using an ECL kit (Thermo Scientific). The following antibodies were used for immunoblotting:
Human monocytes were obtained, treated and analyzed by western blot as described in Example 9 and FIG. 7, except that cells were induced with RANTES (100 ng/ml; Cat. No. 300-06, PeproTech, Israel) for 15 minutes. […] Accordingly, VB-702 and VB-201 inhibit RANTES-induced signaling in human monocytes (primary CD14+).

[5] = system: LPS (TLR4)-stimulated human monocytes (primary CD14+); assay: IL-12/23p40 ELISA, LPS (TLR4)-stimulated monocytes; assay type: cell-based; conditions: 1 hour pretreatment, 24 hour 100 ng/ml LPS, ELISA of supernatant
Protocol: Human monocytes were obtained as described in Example 9 and FIG. 9A-9B. Human monocytes were seeded (10^6/ml) and pretreated for 1 hour with VB-201, VB-701 or VB-702, followed by 24 hour activation with 100 ng/ml LPS from Escherichia coli strain 055:B5 (Sigma, Israel) (FIG. 9A) or 300 ng/ml Pam3CSK4 (InvivoGen, San Diego, Calif., USA) (FIG. 9B) to induce cytokine production. IL-12/23p40 concentration in the supernatant was then measured by ELISA (R&D systems, Cat. No. DY1240). Cells activated with solvent (0.5% ethanol in PBS) were used as a control.

[6] = compared to Nx PBS 0.5% Eth treatment, VB-703 4 mg/kg, telmisartan 10 mg/kg
[7] = normalized to TBP, relative to Sham PBS 0.5% Eth, mean±SEM

Row | Compound | steatosis (NASH-induced mice; VB-703 4 mg/kg once daily for three weeks) | decrease of liver fibrosis compared to vehicle treated mice (Sirius red) (NASH-induced mice; VB-703 4 mg/kg, telmisartan 10 mg/kg, once daily for three weeks) | expression of IL-10 in livers [1] | expression of IL-12/23p40 in livers [1] | expression of the chemokine MCP-1 in livers [1] | reduction of Collagen IV expression [2, 6] | reduction of TGF-β expression [2, 6] | reduction of fibronectin expression [2, 6] | Collagen IV mRNA expression (relative mRNA level) [2, 7] | TGF-β mRNA expression (relative mRNA level) [2, 7] | fibronectin mRNA expression (relative mRNA level) [2, 7] | formation of p-AKT and p-ERK induced by MCP1 [3] | formation of p-ERK induced by RANTES [4] | IL-12p40 levels, LPS (TLR4)-stimulated [5]
1 | CCCCCCCCCCC(CCCCCCCC)COC[C@H](COP(=O)([O-])OCC[n+]1ccccc1)OCCCCC(=O)O (stereo partly drawn) [VB-703, (R)-1-(2′-octyl)dodecyl-2-(4′-carboxy)butyl-sn-glycero-3-phosphoric acid pyridiniumethyl ester] | did not appear to significantly alter | 58% | significantly inhibited | significantly inhibited | significantly inhibited | 51% | 42% | 47% | 3.7±0.52 | 4.8±0.32 | 6.7±0.98 |  |  | 
2 | CCCCCCCCCCCCCCCCOCC(COP(=O)([O-])OCC[N+](C)(C)C)OCCCCC(=O)O (centres unmarked) [VB-201, 1-hexadecyl-2-(4′-carboxy)butyl-glycero-3-phosphocholine, reference compound] |  |  |  |  |  |  |  |  |  |  |  | inhibit | inhibit | inhibit
